Measurements: patent US12351648B2, “Methods of inhibiting MASP-2 for the treatment and/or prevention of coronavirus-induced acute respiratory distress syndrome” (priority 2020, dated 2025)
Where two headings read alike, the source gives them in different places. Non-standard residues stand in square brackets, D forms with d. Residues, ends and D or L forms follow the SMILES beside them. *: point of attachment. dChg = N[C@@H](C(=O)O)C1CCCCC1; Agmatine = N=C(N)NCCCCN*; Aze = O=C(O)[C@@H]1CCN1

What was measured:
[1] = molecular target: MASP-2 (CCP1-CCP2-SP) (Homo sapiens (Human), UniProt O00187); experiment: Enzymatic assay for MASP-2 (fluorogenic substrate); format: biochemical; conditions: for MASP-2 vs. thrombin selectivity: MASP-2 inhibition versus thrombin
MASP-2 (CCP1-CCP2-SP), sequence (O00187 287-686): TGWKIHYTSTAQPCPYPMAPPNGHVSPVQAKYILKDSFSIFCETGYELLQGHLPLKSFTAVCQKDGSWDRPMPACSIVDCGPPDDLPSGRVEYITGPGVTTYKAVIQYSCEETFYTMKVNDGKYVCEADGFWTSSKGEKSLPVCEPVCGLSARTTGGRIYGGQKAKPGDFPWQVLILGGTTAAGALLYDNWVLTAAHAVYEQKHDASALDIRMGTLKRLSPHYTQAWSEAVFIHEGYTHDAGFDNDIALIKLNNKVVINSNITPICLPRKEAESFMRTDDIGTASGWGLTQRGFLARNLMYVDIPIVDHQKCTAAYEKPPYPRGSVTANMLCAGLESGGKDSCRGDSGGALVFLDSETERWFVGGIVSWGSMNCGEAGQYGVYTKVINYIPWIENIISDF

[2] = system: lectin pathway; experiment: Lectin pathway activation assay in 1% human serum (C3 deposition on mannan, ELISA); format: biochemical
[3] = molecular target: human α-thrombin (Homo sapiens (Human), UniProt P00734); experiment: Enzymatic assay for thrombin (Boc-VPR-AMC); format: biochemical
[4] = molecular target: T1, mMASP-2 (Mus musculus (Mouse), UniProt Q91WP0); experiment: Enzymatic assay for mMASP-2 (Ki); format: biochemical
T1 sequence (Q91WP0 20-685): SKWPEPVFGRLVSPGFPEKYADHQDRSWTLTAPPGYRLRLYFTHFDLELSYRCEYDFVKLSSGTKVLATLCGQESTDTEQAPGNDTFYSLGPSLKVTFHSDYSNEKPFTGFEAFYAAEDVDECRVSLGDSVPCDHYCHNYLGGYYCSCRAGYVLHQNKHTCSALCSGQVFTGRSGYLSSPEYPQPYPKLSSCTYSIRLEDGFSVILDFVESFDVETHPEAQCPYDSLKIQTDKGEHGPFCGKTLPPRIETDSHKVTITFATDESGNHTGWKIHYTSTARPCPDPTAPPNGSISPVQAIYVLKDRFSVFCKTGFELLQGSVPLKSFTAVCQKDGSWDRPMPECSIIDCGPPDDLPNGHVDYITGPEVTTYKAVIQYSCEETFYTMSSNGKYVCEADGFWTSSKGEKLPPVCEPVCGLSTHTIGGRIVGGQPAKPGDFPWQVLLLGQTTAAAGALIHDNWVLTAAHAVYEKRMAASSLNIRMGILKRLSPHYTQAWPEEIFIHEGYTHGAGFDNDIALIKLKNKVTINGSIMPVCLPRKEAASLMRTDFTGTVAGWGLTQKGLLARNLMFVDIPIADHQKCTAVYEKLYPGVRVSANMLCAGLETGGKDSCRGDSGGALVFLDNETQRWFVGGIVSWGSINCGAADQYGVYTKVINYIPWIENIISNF

[5] = molecular target: T1, mMASP-2; experiment: Enzymatic assay for mMASP-2 (Ki); format: biochemical; remark: listed apart in the source
[6] = system: COVID-19 patients; conditions: cited from earlier work; for 28-day mortality: […] with usual care
[7] = Thrombin Ki, human α-thrombin, Boc-VPR-AMC
[8] = human α-thrombin, Boc-VPR-AMC, read-out: Thrombin Ki
[9] = oxygen support without invasive mechanical ventilation

N=C(N)NCCCCNC(=O)[C@@H]1CCN1C(=O)[C@H](N)C1CCCCC1 [Compound 1006] (H-[dChg]-[Aze]-Agmatine)
MASP-2 vs. thrombin selectivity [1]: — (less than 1.0-fold)

C[C@H](NC(=O)C1CC(c2ccccc2)CCN1)C(=O)NCc1ccc(N)nc1 (stereo partly drawn) [Compound 1025]
IC50 ([2]; read-out: Lectin Pathway IC50): 500 to 5000 nM
Ki [3, 7]: > 25 µM

N=C(N)c1ccc(CNC(=O)[C@@H]2CCCN2C(=O)[C@H](N)C2CCCCC2)cc1 [Compound 1027]
MASP-2 vs. thrombin selectivity [1]: — (less than 1.0-fold)

C[C@H](NC(=O)[C@H](N)CCc1ccccc1)C(=O)NCc1ccc2nc(N)[nH]c2c1 [Compound 1040]
MASP-2 vs. thrombin selectivity [1]: **** (>100-fold)
Ki ([1]; read-out: MASP-2 Ki): < 0.5 µM
IC50 ([2]; read-out: Lectin Pathway IC50): 500 to 5000 nM
Ki [3, 7]: > 25 µM
Ki [4]: < 500 nM

C[C@H](NC(=O)[C@H](N)CCc1ccc(F)cc1)C(=O)NCc1ccc(C(=N)N)cc1 [Compound 1047]
Ki [3, 8]: < 2.5 µM

C[C@H](NC(=O)C1CC(c2ccccc2)CCN1)C(=O)NCc1ccc(C(=N)N)cc1 (stereo partly drawn) [Compound 1065]
IC50 ([2]; read-out: Lectin Pathway IC50): < 50 nM
Ki [4]: < 500 nM

C[C@H](NC(=O)[C@@H](CCc1ccccc1)NC1CCCCC1)C(=O)NCc1ccc(C(=N)N)cc1 [Compound 1130]
MASP-2 vs. thrombin selectivity [1]: — (less than 1.0-fold)

C[C@H](NC(=O)[C@@H](CCc1ccccc1)NCc1ccc(O)cc1)C(=O)NCc1ccc(C(=N)N)cc1 [Compound 1140]
MASP-2 vs. thrombin selectivity [1]: — (less than 1.0-fold)

C[C@H](NC(=O)[C@@H](CCc1ccccc1)NCc1ccc(F)cc1)C(=O)NCc1ccc(C(=N)N)cc1 [Compound 1141]
MASP-2 vs. thrombin selectivity [1]: — (less than 1.0-fold)
Ki ([1]; read-out: MASP-2 Ki): < 0.5 µM
Ki [3, 8]: < 0.5 µM

COC(=O)CCCCCN[C@H](CCc1ccccc1)C(=O)N[C@@H](C)C(=O)NCc1ccc(C(=N)N)cc1 [Compound 1142]
MASP-2 vs. thrombin selectivity [1]: * (1.0 to 5.0-fold)
Ki ([1]; read-out: MASP-2 Ki): < 0.5 µM
Ki [3, 8]: < 0.5 µM

C[C@H](NC(=O)[C@@H](CCc1ccccc1)NCc1cc2ccccc2[nH]1)C(=O)NCc1ccc(C(=N)N)cc1 [Compound 1143]
MASP-2 vs. thrombin selectivity [1]: — (less than 1.0-fold)
Ki ([1]; read-out: MASP-2 Ki): < 0.5 µM
Ki [3, 8]: < 0.5 µM
Ki [4]: < 500 nM

C[C@H](NC(=O)[C@H]1CCc2ccccc2N1)C(=O)NCc1ccc(C(=N)N)cc1 [Compound 1215]
Ki [4]: < 25000 nM

C[C@H](NC(=O)[C@H](N)CCc1ccccc1)C(=O)NCc1ccc(C(=N)N)cc1 [Compound 1218]
MASP-2 vs. thrombin selectivity [1]: — (less than 1.0-fold)

CCOC(=O)COc1ccc(Cl)cc1CNC(=O)[C@H](C)NC(=O)[C@H](N)CCc1ccccc1 [Compound 1229]
Ki [3, 8]: < 10 µM

CCCCOC(=O)NC(=N)c1ccc(CNC(=O)[C@H](C)NC(=O)[C@H]2C[C@H](c3ccccc3)CN2)cc1 [Compound 1260]
Ki ([1]; MASP-2 Ki (μM)): 2.5 to 10 µM
Ki ([3]; Thrombin Ki (μM)): > 25 µM

CC[C@H](NC(=O)[C@H](N)CCc1ccccc1)C(=O)NCc1ccc(C(=N)N)cc1 [Compound 1289]
MASP-2 vs. thrombin selectivity [1]: — (<1.0-fold)

C[C@H](NC(=O)[C@H](N)CCc1ccccc1)C(=O)NCc1cc(Cl)ccc1-n1cnnn1 [Compound 1325]
MASP-2 vs. thrombin selectivity [1]: — (<1.0-fold)

C[C@H](NC(=O)[C@H]1C[C@H](Cc2ccccc2)CN1)C(=O)NCc1cnc2[nH]cc(Cl)c2c1 [Compound 1334]
MASP-2 vs. thrombin selectivity [1]: — (<1.0-fold)

Cc1nc(N)ccc1CNC(=O)[C@H](C)NC(=O)[C@H]1C[C@H](Cc2ccc3ccccc3c2)CN1 [Compound 1338]
MASP-2 vs. thrombin selectivity [1]: *** (≥25 to <100-fold)

Cc1nc(N)ccc1CNC(=O)[C@@H](C)NC(=O)[C@H]1C[C@H](c2cccc(-c3ccccc3)c2)CN1 [Compound 1359]
Ki ([3]; Thrombin Ki (μM)): > 25 µM
Ki [5]: 10000 to 25000 nM

Cc1nc(N)ccc1CNC(=O)[C@H](C)NC(=O)[C@H]1C[C@H](c2cccc(-c3ccccc3)c2)CN1 [Compound 1360]
IC50 ([2]; read-out: Lectin Pathway IC50): 50 to 500 nM
Ki ([3]; Thrombin Ki (μM)): > 25 µM
Ki [5]: < 500 nM

Cc1nc(N)ccc1CNC(=O)[C@H](C)NC(=O)[C@H]1C[C@@H](c2ccccc2)CCN1CC(=O)O [Compound 1398]
Ki [5]: < 500 nM

C[C@H](NC(=O)[C@H]1C[C@H](Cc2cccc3ccccc23)CN1)C(=O)NCc1cc(Cl)ccc1-n1cnnn1 [Compound 1414]
MASP-2 vs. thrombin selectivity [1]: — (<1.0-fold)

Cc1nc(N)ccc1CNC(=O)[C@H](C)NC(=O)[C@H]1CC(Cc2ccc(F)cc2)(Cc2ccc(F)cc2)CN1 [Compound 1480]
Ki [5]: < 500 nM

N=C(N)c1ccc2[nH]c(Cc3nc4ccccc4[nH]3)nc2c1 [Compound 2015]
Ki ([1]; MASP-2 Ki (μM), −Zn): < 10 µM

N=C(N)c1ccc(CNC(=O)Cn2c(=O)n(Cc3ccccc3)c(=O)c3ccc(C(=O)NC4CCCCC4)cc32)cc1 [Compound 2021]
IC50 ([2]; read-out: Lectin Ki (Lectin Pathway Inhibition, IC50)): 5000 to 50000 nM

C[C@@H]1C[C@H]2[C@@H]3CCC4=CC(=O)C=C[C@]4(C)[C@@]3(F)[C@@H](O)C[C@]2(C)[C@@]1(O)C(=O)CO [dexamethasone]
28-day mortality ([6]; invasive mechanical ventilation): 29.0%
28-day mortality ([6]; no respiratory support at randomization): 17.0%
28-day mortality [6, 9]: 21.5%
Reduction of 28-day mortality [6, 9]: 14%
Reduction of 28-day mortality ([6]; patients on invasive mechanical ventilation): 28.7%
